What was measured:
Conditions in all cases: 200 µM NADPH, 0.1 M potassium phosphate pH 6.4, 30 °C
LcTRI = test system: T1, LcTRI; experiment: NADPH consumption at […] nm, Michaelis-Menten fit; type: biochemical, Lycium chinense
T1 construct: gene TRI

McTRI = test system: T2, McTRI; experiment: NADPH consumption at […] nm, Michaelis-Menten fit; type: biochemical, Mandragora caulescens
T2 construct: gene TRI

BaTRI = test system: T3, BaTRI; experiment: NADPH consumption at […] nm, Michaelis-Menten fit; type: biochemical, Brugmansia arborea
T3 construct: gene TRI

[1] = test system: CN1[C@@H]2CC[C@H]1CC(=O)C2; experiment: purified protein; type: biochemical, Solanum tuberosum

CN1[C@@H]2CC[C@H]1CC(=O)C2 [compound 5, tropinone]
Km (LcTRI): 2910 ± 140 µM
Km (McTRI): 90 ± 10 µM
Km (BaTRI): 310 ± 30 µM

StTRI (Solanum tuberosum; A101V/A193G/L159V/V147L)
Km [1]: 110 ± 10 µM

StTRI (Solanum tuberosum; A101V/L159V)
Km [1]: 280 ± 70 µM
kcat [1]: 3.31 ± 0.20 s⁻¹

Reference: PMC10730914, “Multiple independent losses of the biosynthetic pathway for two tropane alkaloids in the Solanaceae family” (Nature Communications, 2023)
